Experimental data from patent publication US9790217B2, “Pyridinyloxy- and phenyloxy-pyrazolyl compounds” (Hoffmann-La Roche Inc., priority 2014, dated 2017).
pEC50: −log10 of the molar value.

Columns and labels:
human CYP11B1 = human CYP11B1 (Homo sapiens (Human), UniProt P15538); test: G-402 cellular enzyme assay, human CYP11B1 (cortisol release, HTRF); format: cell-based; conditions: G-402 cells expressing human CYP11B1; 1 μM Deoxycortisol
Excerpt: (§1) Herein we identified the use of the G-402 cell line as a host cell to ectopically express (transiently or stably) enzymes of the CYP11 family. Specifically we developed stable G-402 cells expressing ectopically human CYP11B1, human CYP11B2, human CYP11A1, cynmolgus CYP11B1 or cynomolgus CYP11B2 enzyme activity. Importantly the identified cell line G-402 expresses co-factors (adrenodoxin and adrenodoxin reductase) important for the activity of the CYP11 family and no relevant enzyme activity of the CYP11 family (in comparison to H295R cells) was detected in these cells. Therefore the G-402 cell line is uniquely suited as a host cell for the ectopic expression of enzymes from the CYP11 family.
(§2) G-402 cells can be obtained from ATCC (CRL-1440) and were originally derived from a renal leiomyoblastoma.
(§3) The expression plasmids contains the ORF for either human/cyno CYP11B1 or CYP11B2 under the control of a suitable promoter (CMV-promoter) and a suitable resistance marker (neomycin). Using standard techniques the expression plasmid is transfected into G-402 cells and these cells are then selected for expressing the given resistance markers. Individual cell-clones are then selected and assessed for displaying the desired enzymatic activity using 11-Deoxycorticosterone (Cyp11B2) or 11-Deoxycortisol (Cyp11B1) as a substrate.
(§4) G-402 cells expressing CYP11 constructs were established as described above and maintained in McCoy's 5a Medium Modified, ATCC Catalog No. 30-2007 containing 10% FCS and 400 μg/ml G418 (Geneticin) at 37° C. under an atmosphere of 5% CO2/95% air. Cellular enzyme assays were performed in DMEM/F12 medium containing 2.5% charcoal treated FCS and appropriate concentration of substrate (0.3-10 uM 11-Deoxycorticosterone, 11-Deoxycortisol or Corticosterone). For assaying enzymatic activity, cells were plated onto 96 well plates and incubated for 16 h. An aliquot of the supernatant is then transferred and analyzed for the concentration of the expected product (Aldosterone for CYP11B2; Cortisol for CYP11B1). The concentrations of these steroids can be determined using HTRF assays from CisBio analyzing either Aldosterone or Cortisol.
(§5) Inhibition of the release of produced steroids can be used as a measure of the respective enzyme inhibition by test compounds added during the cellular enzyme assay. The dose dependent inhibition of enzymatic activity by a compound is calculated by means of plotting added inhibitor concentrations (x-axes) vs. measured steroid/product level (y-axes). The inhibition is then calculated by fitting the following 4-parameter sigmoidal function (Morgan-Mercer-Flodin (MMF) model) to the raw data points using the least squares method:
(§6) [formula] wherein, A is the maximum y value, B is the EC50 factor determined using XLFit, C is the minimum y value and D is the slope value.
(§7) EC50 values for compounds claimed herein were tested with the G402-based assay system described. Cyp11B2 enzyme activity was tested in presence of 1 μM Deoxycorticosterone and variable amounts of inhibitors; Cyp11B1 enzyme activity was tested in presence of 1 μM Deoxycortisol and variable amounts of inhibitors.

human CYP11B2 = human CYP11B2 (Homo sapiens (Human), UniProt P19099); test: G-402 cellular enzyme assay, human CYP11B2 (aldosterone release, HTRF); format: cell-based; conditions: G-402 cells expressing human CYP11B2; 1 μM Deoxycorticosterone
human CYP11B2, sequence (P19099 25-503): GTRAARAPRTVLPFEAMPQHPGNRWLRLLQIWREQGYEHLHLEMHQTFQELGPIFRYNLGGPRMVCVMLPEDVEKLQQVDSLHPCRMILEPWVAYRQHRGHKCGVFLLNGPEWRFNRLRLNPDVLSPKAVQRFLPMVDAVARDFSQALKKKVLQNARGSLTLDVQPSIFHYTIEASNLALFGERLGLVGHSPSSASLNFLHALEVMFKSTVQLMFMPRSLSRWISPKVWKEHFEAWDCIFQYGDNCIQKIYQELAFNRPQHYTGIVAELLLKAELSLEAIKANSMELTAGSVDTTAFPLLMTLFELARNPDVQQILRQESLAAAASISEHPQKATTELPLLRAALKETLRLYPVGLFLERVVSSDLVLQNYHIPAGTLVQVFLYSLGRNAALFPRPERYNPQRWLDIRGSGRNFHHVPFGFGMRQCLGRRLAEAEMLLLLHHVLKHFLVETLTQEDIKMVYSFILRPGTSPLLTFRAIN
Excerpt: as §1, §2, §3, §4, §5, §6, §7

[1] = system: rats with experimental heart failure; conditions: cited from earlier work
[2] = system: rat model of chronic kidney disease; conditions: rat CKD model, cited from earlier work; for plasma aldosterone: FAD286 4 weeks, spironolactone 4 and 8 weeks of treatment
[3] = system: patients with primary aldosteronism; conditions: cited from earlier work

human CYP11B1, sequence (P15538 25-503): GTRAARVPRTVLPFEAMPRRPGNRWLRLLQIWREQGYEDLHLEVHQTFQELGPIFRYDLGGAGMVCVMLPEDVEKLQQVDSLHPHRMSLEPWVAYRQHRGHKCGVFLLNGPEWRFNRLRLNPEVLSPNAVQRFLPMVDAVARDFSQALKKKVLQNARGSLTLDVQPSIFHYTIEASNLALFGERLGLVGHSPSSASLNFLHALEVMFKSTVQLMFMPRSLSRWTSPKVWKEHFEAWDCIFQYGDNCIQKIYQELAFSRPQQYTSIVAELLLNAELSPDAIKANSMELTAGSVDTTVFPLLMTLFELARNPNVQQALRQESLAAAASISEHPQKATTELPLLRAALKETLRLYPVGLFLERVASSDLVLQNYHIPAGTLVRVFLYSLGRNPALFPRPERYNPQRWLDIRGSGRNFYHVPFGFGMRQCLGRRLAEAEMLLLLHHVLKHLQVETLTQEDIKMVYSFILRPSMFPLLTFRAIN

Row | Structure (SMILES) | pEC50 (human CYP11B1) | pEC50 (human CYP11B2) | other results
1 | N#Cc1ccc(Oc2cn[nH]c2-c2cccc(C[n+]3cccc([O-])c3)c2)cc1 [Example 71, 1-[[3-[4-(4-Cyanophenoxy)-1H-pyrazol-3-yl]phenyl]methyl]pyridin-1-ium-3-olate] | 5.23 | 6.18 | 
2 | N#Cc1ccc(Oc2cn[nH]c2-c2cccc(Cn3ccc(=O)cc3)c2)cc1 [Example 72, 4-[[3-[3-[(4-Oxopyridin-1-yl)methyl]phenyl]-1H-pyrazol-4-yl]oxy]benzonitrile] | 4.72 | 5.79 | 
3 | N#Cc1ccc(Oc2cn[nH]c2-c2cccc(COc3cccc(Cl)n3)c2)cc1 [Example 73, 4-[[3-[3-[(6-Chloropyridin-2-yl)oxymethyl]phenyl]-1H-pyrazol-4-yl]oxy]benzonitrile] | 6.39 | 6.99 | 
4 | N#Cc1ccc(Oc2cn[nH]c2-c2cccc(CN3CC(F)(CO)C3)c2)cc1 [Example 74, 4-[[3-[3-[[3-Fluoro-3-(hydroxymethyl)azetidin-1-yl]methyl]phenyl]-1H-pyrazol-4-yl]oxy]benzonitrile] | 7.44 | 7.71 | 
5 | N#Cc1ccc(Oc2cn[nH]c2-c2cccc(CN3CCOCC3)c2)cc1 [Example 75, 4-[[3-[3-(Morpholin-4-ylmethyl)phenyl]-1H-pyrazol-4-yl]oxy]benzonitrile] | 6.86 | 8.07 | 
6 | N#Cc1ccc(Oc2cn[nH]c2-c2ccccc2OCc2ccncc2)cc1 [Example 76, 4-[[3-[2-(Pyridin-4-ylmethoxy)phenyl]-1H-pyrazol-4-yl]oxy]benzonitrile] | 8.17 | 9.70 | 
7 | N#Cc1ccc(Oc2cn[nH]c2-c2ccccc2OCc2cccnc2)cc1 [Example 77, 4-[[3-[2-(Pyridin-3-ylmethoxy)phenyl]-1H-pyrazol-4-yl]oxy]benzonitrile] | 7.94 | 9.52 | 
8 | N#Cc1ccc(Oc2cn[nH]c2-c2ccccc2O)cc1 [Example 78, 4-[[3-(2-Hydroxyphenyl)-1H-pyrazol-4-yl]oxy]benzonitrile] | 7.97 | 9.52 | 
9 | N#Cc1ccc(Oc2cn[nH]c2-c2ccccc2OCc2ccccn2)cc1 [Example 79, 4-[[3-[2-(Pyridin-2-ylmethoxy)phenyl]-1H-pyrazol-4-yl]oxy]benzonitrile] | 8.60 | 9.70 | 
10 | Cn1cc(COc2ccccc2-c2[nH]ncc2Oc2ccc(C#N)cc2)cn1 [Example 80, 4-[[3-[2-[(1-Methylpyrazol-4-yl)methoxy]phenyl]-1H-pyrazol-4-yl]oxy]benzonitrile] | 8.16 | 9.52 | 
11 | Cn1nncc1COc1ccccc1-c1[nH]ncc1Oc1ccc(C#N)cc1 [Example 81, 4-[[3-[2-[(3-Methyltriazol-4-yl)methoxy]phenyl]-1H-pyrazol-4-yl]oxy]benzonitrile] | 6.77 | 8.60 | 
12 | N#Cc1ccc(Oc2cn[nH]c2-c2ccccc2Cn2ccc(=O)cc2)cc1 [Example 83, 4-[[3-[2-[(4-Oxopyridin-1-yl)methyl]phenyl]-1H-pyrazol-4-yl]oxy]benzonitrile] | 5.54 | 6.49 | 
13 | N#Cc1ccc(Oc2cn[nH]c2-c2cccc(O)c2F)cc1 [Example 84, 4-[[3-(2-Fluoro-3-hydroxyphenyl)-1H-pyrazol-4-yl]oxy]benzonitrile] | 7.76 | 9.40 | 
14 | N#Cc1ccc(Oc2cn[nH]c2-c2cccc(OCc3ccncc3)c2F)cc1 [Example 85, 4-[[3-[2-Fluoro-3-(pyridin-4-ylmethoxy)phenyl]-1H-pyrazol-4-yl]oxy]benzonitrile] | 8.28 | 9.52 | 
15 | N#Cc1ccc(Oc2cn[nH]c2-c2cccc(OCc3ccnc(Cl)c3)c2F)cc1 [Example 86, 4-[[3-[3-[(2-Chloropyridin-4-yl)methoxy]-2-fluorophenyl]-1H-pyrazol-4-yl]oxy]benzonitrile] | 7.55 | 8.37 | 
16 | Cn1cc(C(=O)N2CCN(Cc3[nH]ncc3Oc3ccc(C#N)cc3)CC2)cn1 [Example 88, 4-[[5-[[4-(1-Methylpyrazole-4-carbonyl)piperazin-1-yl]methyl]-1H-pyrazol-4-yl]oxy]benzonitrile] | 4.59 | 6.83 | 
17 | Cn1nncc1COc1c(Cl)cccc1-c1[nH]ncc1Oc1ccc(C#N)cc1 [Example 90, 4-[[3-[3-Chloro-2-[(3-methyltriazol-4-yl)methoxy]phenyl]-1H-pyrazol-4-yl]oxy]benzonitrile] | 5.80 | 6.80 | 
18 | N#Cc1ccc(C2CCCc3cncn32)cc1 (stereo not shown) [FAD286] |  |  | blood pressure and cardiovascular function and structure [1]: improved; kidney function and morphology [1]: improve; plasma aldosterone [2]: reduced; cardiac and aortic medial hypertrophy [2]: attenuated; renal effects of angiotensin II and high salt (albuminuria, azotemia, renovascular hypertrophy, glomerular injury, PAI-1, osteopontin mRNA, tubulointerstitial fibrosis) [2]: prevented
19 | N#Cc1ccc([C@H]2CCc3cncn32)c(F)c1 [LCI699] |  |  | blood pressure [3]: mildly decreased; hypokalemia [3]: corrected; circulating aldosterone levels ([3]; oral): significantly lower
20 | CC(=O)S[C@@H]1CC2=CC(=O)CC[C@]2(C)[C@H]2CC[C@@]3(C)[C@@H](CC[C@@]34CCC(=O)O4)[C@H]12 [spironolactone] |  |  | plasma aldosterone [2]: increased; angiotensin II and salt-stimulated PAI-1 mRNA expression in the aorta and the heart [2]: enhanced; cardiac and aortic medial hypertrophy [2]: attenuated; renal effects of angiotensin II and high salt (albuminuria, azotemia, renovascular hypertrophy, glomerular injury, PAI-1, osteopontin mRNA, tubulointerstitial fibrosis) [2]: prevented
